Results reported in article PMC3636874, “An Antedrug of the CXCL12 Neutraligand Blocks Experimental Allergic Asthma without Systemic Effect in Mice” (The Journal of Biological Chemistry, 2013).
Like-named read-outs stand apart in the source and are kept apart here.

Legend:
[1] = Chemical stability in PBS pH 7.4; assay type: physicochemical
Procedure: Solubility and stability studies were performed on a Gilson HPLC system with a photodiode array detector, an autosampler, and a Valco injector. Data acquisition and processing were performed with Trilution LC version 2.0 software. Measurements were carried out at 21 ± 1 °C. A 2.6-μm Kinetex column (50 × 4.6 mm) was used for stability studies in biological media, and a 5-μm Luna C18(2) column (50 × 4.6 mm) was used for solubility and chemical stability analysis. Both columns were purchased from Phenomenex. The injection volume was 20 μl, the mobile phase flow rate was 2 ml/min, and the following program was applied for the elution: 0–0.2 min, 0% B; 0.2–2.7 min, 0–100% B; 2.7–3.2 min, 100% B; 3.2–3.4 min, 100–0% B; 3.4–6.1 min, 0% B. Solvent B was HPLC grade acetonitrile (Sigma-Aldrich CHROMASOLV). The aqueous solvent contained 0.1% trifluoroacetic acid, and the detection wavelength was 365 nm.
Stability of compounds was assessed in PBS, pH 7.4, with or without 10% HP-βCD at 20 °C up to 24 h. For each compound, the 10 mM DMSO stock solution was diluted to a final incubation concentration of 10 μM with 0.1% DMSO. 20 μl of sample were removed at t0, 1, 2, 4, 6, 8, 10, and 24 h and directly injected onto the HPLC. The percentage of remaining test compound relative to t0 was measured by monitoring the peak area on the chromatogram.

HepG2 cells = test: Cytotoxicity, Alamar Blue (resazurin) reduction assay; assay type: cell-based, human; details: HepG2: 10 μM, 24 h
Procedure: The capacity of the cells to carry out reduction reactions after drug treatment was estimated with the fluorescent Alamar Blue reagent (AbD Serotec, Oxford, UK). Proliferating cells cause the change from the oxidized blue and non-fluorescent Alamar Blue form (resazurin) to a reduced, pink, highly fluorescent form (resorufin) that can be detected using fluorescence monitoring (excitation 560 nm; emission 590 nm). HepG2 or HEK 293 cells were seeded at a density of 30,000 cells/well on a 96-well plate and allowed to settle overnight before treatment. The dye was added to the cells together with the test substances (5-fold concentrated stock solution prepared in culture medium or in PBS with 10% HP-βCD), and the fluorescence was measured after 24-h incubation, using a Flex Station (Molecular Devices).

[2] = General toxicity in vivo: body and spleen weight; parameters: species or system mouse; details: for Weight, Body (percentage of control animals) / Weight, Spleen: three days
Procedure: General toxicity was evaluated in vivo in mice that received CN-chalcone 4 intraperitoneally at a dose of 350 μmol/kg (100 mg/kg) per day during three consecutive days. As reported in Table 2, there was no body or spleen weight loss nor any modification of cytochrome c oxidase activity in lung and heart, indicating no toxicity of CN-chalcone 4 administered at the highest active dose.

[3] = OVA-challenged mice, intraperitoneal 350 μmol/kg per day

COc1cc(/C=C(\C#N)C(=O)c2ccc(Cl)cc2)ccc1O [CN-chalcone 4, (E)-2-(4-chlorobenzoyl)-3-(4-hydroxy-3-methoxyphenyl)acrylonitrile]
half-life at 10 μM ([1]; PBS pH 7.4, 20 °C, read-out: Stability half-life (t1/2), PBS (converted)): 6 h
half-life at 10 μM ([1]; PBS with 10% HP-βCD, PBS pH 7.4 with 10% HP-βCD, 20 °C, read-out: Stability half-life (t1/2), PBS, 10% β-cyclodextrine (converted)): 16.3 h
toxic effect in vivo or in HepG2 cells in vitro (HepG2 cells): neither the reactants nor carbonitrile-chalcone 4 display any toxic effect
Weight, Body (percentage of control animals) [2, 3]: 99.6 ± 6%
Weight, Spleen [2, 3]: 123 ± 4 mg
Weight, Body (percentage of control animals) ([2]; mice without OVA, intraperitoneal 350 μmol/kg (100 mg/kg) per day, carboxymethylcellulose): 99.6 ± 6%
Weight, Spleen ([2]; mice without OVA, intraperitoneal 350 μmol/kg per day): 125 ± 11 mg
general toxicity in vivo (body and spleen weight, cytochrome c oxidase activity in lung and heart) ([2]; mice, intraperitoneal 350 μmol/kg (100 mg/kg) per day during three consecutive days): no toxicity
